The assay deals with T1, APOL1 G1 (Homo sapiens, UniProt O14791, I384M/S342G).
T1 sequence (O14791 28-398 S342G/I384M): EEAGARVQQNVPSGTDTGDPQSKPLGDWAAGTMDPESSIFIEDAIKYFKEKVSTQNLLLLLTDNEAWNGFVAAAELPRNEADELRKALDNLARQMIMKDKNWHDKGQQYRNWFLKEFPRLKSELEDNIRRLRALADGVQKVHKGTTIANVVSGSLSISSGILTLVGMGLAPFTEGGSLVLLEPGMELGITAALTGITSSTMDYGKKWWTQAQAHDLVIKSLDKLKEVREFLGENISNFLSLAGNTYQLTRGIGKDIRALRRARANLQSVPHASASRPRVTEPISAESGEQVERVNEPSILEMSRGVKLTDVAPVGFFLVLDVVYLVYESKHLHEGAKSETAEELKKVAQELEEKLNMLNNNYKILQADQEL
The assay can be described thus: MultiTox-Fluor Multiplex Cytotoxicity Assay, tet-inducible APOL1 G1 T-REx-HEK293 cells. It counts as cell-based. Also on record: expressed in transfected cells; host or cells: T-REx HEK293, clone G1 DC3.25 (pAAVS1-Puro-APOL1 G1). Conditions: for IC90: read-out: Multi-Tox Assay IC90; for Emax: read-out: Multi-Tox Assay Max Activity (%). The method, boiled down:
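Over 24 h at 37 °C, compounds (10-point 3-fold series from 10 µM, duplicate) were co-incubated with 50 ng/mL tetracycline inducing APOL1 G1 in T-REx-HEK293 cells. Viability/cytotoxicity measured by MultiTox-Fluor as dead-to-live fluorescence ratio, expressed as percent of control between uninduced and induced wells and fitted.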

The mark [1] stands for this setting: HEK293, Multi-Tox Assay, APOL1 variant (G0/G1/G2) of the HEK293 cells not given.
Where [2] appears, read: Multi-Tox Assay, APOL1 variant not given.
Setting [3] is: Multi-Tox Assay, APOL1 variant (G0/G1/G2) not stated in Table 46.
Where [4] appears, read: Multi-Tox Assay, APOL1 variant not stated in Table 46.

35 compounds from patent EP4810040A2, “INHIBITORS OF APOL1 AND METHODS OF USING SAME” (priority 2020, dated 2022) can be followed below.

SMILES strings stand for the structures. Where two headings read alike, the source gives them in different places.

What is called IC90 is the point of the concentration-response curve where the effect stands at 90%. The IC50 is the concentration needed to halve the response being measured. Read a high IC50 as lower potency.

Take `Cc1nccc([C@@H]2C[C@]3(C[C@H](C)N2)OCCc2cc(Cl)sc23)n1` (racemic) [Compound 116]: the IC90 under setting [1] was 50 to 500 nM. Under setting [2], the “Multi-Tox Assay Max Activity (%)” value is 99.4%.

With `C[C@H]1C[C@@]2(C[C@@H](c3ccc(S(N)(=O)=O)cc3F)N1)OCCc1cc(Cl)sc12` (racemic) [Compound 78], the IC90 under setting [1] is less than 50 nM. Also, under setting [2], the Emax is 99.7%.

Regarding `COc1cccc(C2CC3(CC(C)N2)OCCc2cc(Cl)sc23)n1` (mixture of isomers) [Compound 135], under setting [1], the 90% effect concentration (IC90) is 50 to 500 nM. Moreover, the “Multi-Tox Assay Max Activity (%)” value under setting [2] came to 98.0%.

Consider `C[C@H]1C[C@@]2(C[C@@H](c3cn(Cc4ccccn4)nn3)N1)OCC(F)(F)c1cc(Cl)sc12` [Compound 332], for which the 90% effect concentration (IC90) under setting [1] is 50 to 500 nM. Further, under setting [2], the “Multi-Tox Assay Max Activity (%)” value is 96.0%.

Turning to `Cc1cccnc1[C@@H]1C[C@]2(C[C@H](C)N1)OCCc1cc(Cl)sc12` (racemic) [Compound 167], the IC90 under setting [1] is more than 500 nM. Also, the “Multi-Tox Assay Max Activity (%)” value under setting [2] is given as 89.7%.

In the case of `CC1CC2(CC(c3cnn(-c4cccnc4)c3)N1)OCCc1cc(Cl)sc12` (stereo not shown) [Compound 40], the IC90 under setting [1] was less than 50 nM. The “Multi-Tox Assay Max Activity (%)” value under setting [2] is given as 100.0%.

In the case of `CC1CC2(CC(C3CCOCC3)N1)OCCc1cc(Cl)sc12` (mixture of isomers) [Compound 216], the IC90 under setting [1] is more than 500 nM. For the same compound, the Emax under setting [2] was 97.7%.

As for `Cc1cc2c(s1)C1(CC(C)NC(c3cn(C)nn3)C1)OCC2` (single isomer, unassigned) [Compound 3], the IC90 under setting [1] was less than 50 nM. Under setting [2], the Emax was 99.7%.

Consider `Cc1cccc([C@@H]2C[C@]3(C[C@H](C)N2)OCCc2cc(Cl)sc23)n1` (racemic) [Compound 126], for which the 90% effect concentration (IC90) under setting [1] was 50 to 500 nM. Moreover, the “Multi-Tox Assay Max Activity (%)” value under setting [2] is recorded as 99.4%.

In the case of `CC1CC2(CC(c3cnn(C)n3)N1)OCCc1cc(Cl)sc12` (stereo not shown) [Compound 38], the 90% effect concentration (IC90) under setting [1] is less than 50 nM. Further, under setting [2], the Emax was 100%.

On to `Cc1nccn1CCCn1cc([C@@H]2C[C@]3(C[C@H](C)N2)OC[C@@H](O)c2cc(Cl)sc23)nn1` [Compound 251], for which the IC90 under setting [1] fell in the range of 50 to 500 nM.

As to `C[C@H]1C[C@@]2(C[C@@H](c3c[nH]cn3)N1)OCCc1cc(Cl)sc12` (racemic) [Compound 85], the concentration for an effect of 90% (IC90) under setting [1] was less than 50 nM. For the same compound, the Emax under setting [2] is 99.3%.

Take `CC1CC2(CC(C(C)C)N1)OCCc1cc(Cl)sc12` (mixture of isomers) [Compound 214]: the IC90 under setting [1] was 50 to 500 nM. The Emax under setting [2] was found to be 99.3%.

As for `COc1nn(C)cc1[C@@H]1C[C@]2(C[C@H](C)N1)OCCc1cc(Cl)sc12` (racemic) [Compound 154], under setting [1], the IC90 was more than 500 nM. Further, the “Multi-Tox Assay Max Activity (%)” value under setting [2] turned out to be 94.0%.

Regarding `Cc1c(Cn2cc([C@@H]3C[C@]4(C[C@H](C)N3)OC[C@@H](O)c3cc(Cl)sc34)nn2)cnn1C` [Compound 285], the 90% effect concentration (IC90) under setting [1] was in the range of 50 to 500 nM. The “Multi-Tox Assay Max Activity (%)” value under setting [2] was found to be 98.0%.

Turning to `COc1ccc(Cn2cc([C@@H]3C[C@]4(C[C@H](C)N3)OCC(F)(F)c3cc(Cl)sc34)nn2)cc1F` [Compound 362], under setting [3], the IC90 lay within 50 to 500 nM. Moreover, under setting [4], the “Multi-Tox Assay Max Activity (%)” value was 98.0%. The compound also yielded an IC50 (Multi-Tox Assay, IP50 = IC50 for cell proliferation, APOL1 variant not stated in Table 46) of 50 to 500 nM.

Turning to `COCCn1cc([C@@H]2C[C@]3(C[C@H](C)N2)OCCc2cc(Cl)sc23)cn1` (racemic) [Compound 90], the IC90 under setting [1] is less than 50 nM. Further, the Emax under setting [2] came out at 100%.

As for `CCOc1ccc([C@@H]2C[C@]3(C[C@H](C)N2)OCCc2cc(Cl)sc23)nc1` (racemic) [Compound 69], under setting [1], the IC90 was less than 50 nM. Besides, under setting [2], the Emax was 99.7%.

With `[2H][13C]([2H])([2H])n1cc([C@@H]2[13CH2][C@]3(C[C@H](C)N2)OC[C@@H](O)c2cc(C(F)(F)F)sc23)nn1` [Compound 386, (2S,4S,4'S,6S)-2-methyl-6-(1-(methyl-^13C-d3)-1H-1,2,3-triazol-4-yl)-2'-(trifluoromethyl)-4',5'-dihydrospiro[piperidine-4,7'-thieno[2,3-c]pyran]-5-^13C-4'-ol], the concentration for an effect of 90% (IC90) under setting [3] is less than 50 nM. The Emax under setting [4] was 100%.

Regarding `CCOc1ccc([C@@H]2C[C@]3(C[C@H](C)N2)OCCc2cc(Cl)sc23)cc1O` (racemic) [Compound 107], the concentration for an effect of 90% (IC90) under setting [1] was less than 50 nM. The “Multi-Tox Assay Max Activity (%)” value under setting [2] worked out at 99.7%.

As to `C[C@@H]1CC2(C[C@H](C)N1)OCCc1sc(C(F)(F)F)cc12` (single isomer, unassigned) [Compound 196], the IC90 under setting [1] fell in the range of 50 to 500 nM. Further, the Emax under setting [2] amounted to 99%.

As to `C[C@H]1C[C@@]2(C[C@@H](c3cn(CC4CCCCO4)nn3)N1)OCC(F)(F)c1cc(Cl)sc12` (stereo partly shown) [Compound 343], the IC90 under setting [1] lay within 50 to 500 nM. For the same compound, the “Multi-Tox Assay Max Activity (%)” value under setting [2] came to 97.0%.

For `C[C@H]1C[C@@]2(C[C@@H](c3cn(CC#N)nn3)N1)OC[C@@H](O)c1cc(Cl)sc12` [Compound 255], the IC90 under setting [1] is 50 to 500 nM. Further, the “Multi-Tox Assay Max Activity (%)” value under setting [2] was 100.0%.

On to `C[C@H]1C[C@@]2(C[C@@H](c3ccc[nH]c3=O)N1)OCCc1cc(Cl)sc12` (racemic) [Compound 121], for which the IC90 under setting [1] lay within 50 to 500 nM.

As for `C[C@H]1C[C@@]2(C[C@@H](c3cn(Cc4cncs4)nn3)N1)OCC(F)(F)c1cc(Cl)sc12` [Compound 365], the concentration for an effect of 90% (IC90) under setting [3] was 50 to 500 nM.

As to `C[C@H]1C[C@@]2(C[C@@H](c3cnc4n3CCOC4)N1)OCCc1cc(Cl)sc12` (racemic) [Compound 149], under setting [1], the IC90 was more than 500 nM. Besides, the “Multi-Tox Assay Max Activity (%)” value under setting [2] is 95.7%.

For the compound `CCc1cc2c(s1)C1(C[C@@H](C)N[C@@H](C)C1)OCC2` (single isomer, unassigned) [Compound 199], the 90% effect concentration (IC90) under setting [1] lay within 50 to 500 nM. Also, the Emax under setting [2] was found to be 99.3%.

As for `C[C@H]1C[C@@]2(C[C@@H](c3cn(Cc4cnc5cnccn45)nn3)N1)OCC(F)(F)c1cc(Cl)sc12` [Compound 358], the concentration for an effect of 90% (IC90) under setting [1] is less than 50 nM. Also, under setting [2], the “Multi-Tox Assay Max Activity (%)” value was 98.0%.

As to `C[C@H]1C[C@@]2(C[C@@H](c3cn(C)nn3)N1)OC[C@H](O)c1cc(Cl)sc12` [Compound 177, (2'S,4R,6'S,7S)-2-chloro-2'-methyl-6'-(1-methyltriazol-4-yl)spiro[4,5-dihydrothieno[2,3-c]pyran-7,4'-piperidine]-4-ol], the IC90 under setting [1] was less than 50 nM. Under setting [2], the Emax was determined as 100%.

For `Cc1ccc([C@@H]2C[C@]3(C[C@H](C)N2)OCCc2cc(Cl)sc23)cn1` (racemic) [Compound 55], under setting [1], the concentration for an effect of 90% (IC90) was less than 50 nM. Under setting [2], the “Multi-Tox Assay Max Activity (%)” value is 99.7%.

Consider `C[C@H]1C[C@@]2(C[C@@H](c3cn(Cc4ccccn4)nn3)N1)OC[C@@H](O)c1cc(Cl)sc12` [Compound 292], for which, under setting [1], the IC90 lay in the range of 50 to 500 nM.

For the compound `Cc1nocc1[C@@H]1C[C@]2(C[C@H](C)N1)OCCc1cc(Cl)sc12` (racemic) [Compound 132], the IC90 under setting [1] lay in the range of 50 to 500 nM. Also, the “Multi-Tox Assay Max Activity (%)” value under setting [2] is reported as 99.3%.

For the compound `COCCn1cc([C@@H]2C[C@]3(C[C@H](C)N2)OCC(F)(F)c2cc(Cl)sc23)nn1` [Compound 323], under setting [1], the concentration for an effect of 90% (IC90) lay within 50 to 500 nM. The “Multi-Tox Assay Max Activity (%)” value under setting [2] was 100.0%.

For `C[C@@H]1CC2(C[C@H](C)N1)OCCc1cc(C(F)(F)F)sc12` (single isomer, unassigned) [Compound 207], the IC90 under setting [1] lay in the range of 50 to 500 nM. Besides, the Emax under setting [2] stood at 100%.

`CC(CO)CCn1cc([C@@H]2C[C@]3(C[C@H](C)N2)OC[C@@H](O)c2cc(Cl)sc23)nn1` (stereo partly shown) [Compound 264]: the 90% effect concentration (IC90) under setting [1] lay in the range of 50 to 500 nM. Moreover, the “Multi-Tox Assay Max Activity (%)” value under setting [2] was determined as 100.0%.
